Source: patent US5258378A, “Pyrroloazepine compounds useful as dopaminergic agents” (Lilly Industries Limited, priority 1990, dated 1993)

Molecular target: T1, dopamine, D1 receptors (Rattus norvegicus, UniProt P18901)
T1 construct: from tissue; host or cells: rat striatum (inferred from the cited Billard et al. 1984)
Experiment: 3H-SCH23390 binding test (Billard et al.)
Conditions: 3H-SCH23390 radioligand; read-out: IC50 value (the concentration of the compound required to reduce the binding of 3H-SCH23390 by 50%)
Text: As mentioned above, the compounds of formula (I), with the exception of those in which both R^1 and R^2 are hydrogen and those in which R^3 in optionally substituted phenylsulphonyl, have useful central nervous system activity with low toxicity. […] The compounds of formula (I) and pharmaceutically-acceptable acid addition salts thereof, are potent centrally acting compounds which are useful in the treatment of depression, mild anxiety states, certain kinds of psychotic conditions such as schizophrenia and acute mania and parkinsonism.

T1 sequence (P18901 whole entry): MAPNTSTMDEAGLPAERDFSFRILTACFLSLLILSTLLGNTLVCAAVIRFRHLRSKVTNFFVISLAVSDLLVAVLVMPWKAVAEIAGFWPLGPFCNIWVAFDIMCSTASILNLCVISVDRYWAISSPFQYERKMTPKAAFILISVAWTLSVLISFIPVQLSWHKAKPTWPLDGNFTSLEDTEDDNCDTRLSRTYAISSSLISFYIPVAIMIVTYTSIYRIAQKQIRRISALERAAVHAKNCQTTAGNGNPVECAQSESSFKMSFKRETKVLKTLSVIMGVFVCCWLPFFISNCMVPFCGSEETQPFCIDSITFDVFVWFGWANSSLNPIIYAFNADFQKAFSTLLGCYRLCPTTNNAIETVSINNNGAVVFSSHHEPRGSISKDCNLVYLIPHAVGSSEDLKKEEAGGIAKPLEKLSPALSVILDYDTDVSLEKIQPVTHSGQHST

SMILES	IC50
CN1CCc2c([nH]c(Br)c2Br)C(c2ccccc2)C1 (racemic) [Example 10, 2,3-Dibromo-1,4,5,6,7,8-hexahydro-6-methyl-8-phenylpyrrolo[2,3-d]azepine]	1100 nM
CN1CCc2c(Br)c[nH]c2C(c2ccccc2)C1 (racemic) [Example 12, 3-Bromo-1,4,5,6,7,8-hexahydro-6-methyl-8-phenylpyrrolo[2,3-d]azepine]	150 nM
